Patent publication US7999001B2 (priority 2007, dated 2011)
Entries after “also recorded” stand apart in the source; their conditions may differ.

Legend:
[1] = test system: Rift Valley Fever Virus (ZH501 strain); type: cell-based
[2] = test system: EBOV-GFP (recombinant Ebola Zaire virus expressing green fluorescence protein); assay: microbe, parasite or virus in culture; type: cell-based; conditions: Zaire ebolavirus, Vero C1008, 48 h, read-out: EBOV % Inhibition (20 μM)
[3] = test system: Lassa virus (Josiah strain); type: cell-based
[4] = test system: EBOV-GFP; assay: microbe, parasite or virus in culture; type: cell-based, Ebola Zaire virus; conditions: for IC50: Zaire ebolavirus, Vero C1008, read-out: IC50 (read from graphs of % of control infection)
[5] = test system: GFP-EBOV; type: cell-based, Ebola Zaire virus
[6] = test system: influenza virus (H1N1 A/Texas strain); type: cell-based
[7] = test system: cowpox virus (CPXV, egfpCPV virus); set-up: species or system mice; conditions: mouse, in vivo
[8] = test system: MPXV-GFP (recombinant monkeypox virus expressing GFP, Zaire strain); assay: microbe, parasite or virus in culture; type: cell-based; conditions: Vero C1008, in Primates, 48 h, read-out: Monkey Pox % Inhibition (20 μM)

SMILES | antiviral activity toward RVFV [1] | inhibition at 20 µM [2] [%] | antiviral activity toward LV (Lassa virus) [3] | dose dependent antiviral activity toward EBOV-GFP [4] | IC50 [4] [µM] | effect of 24 hours pre-treatment of cells versus treatment during and after infection [5] | antiviral activity toward influenza virus [6] | inhibition of influenza virus replication [6] | inhibition of Lassa virus replication [3] | IC50 toward EBOV (in words) [4] | mean time to death [7] | inhibition at 20 µM [8] [%]
N=C(N)c1ccc2oc(C=Cc3nc4cc(C(=N)N)ccc4[nH]3)cc2c1 [NSC 369723, 2-(2-(5-(amino(imino)methyl)-1-benzofuran-2-yl)vinyl)-1H-benzimidazole-5-carboximidamide] | not | 94 | not | dose dependent antiviral activity | ~4 | more effective than treatment during and after infection | not |  |  |  |  | 
N=C(N)c1ccc2oc(/C=C/c3cc4ccc(C(=N)N)cc4o3)cc2c1 [NSC 294202, 2-[(E)-2-(5-carbamimidoylbenzofuran-2-yl)ethenyl]benzofuran-6-carboximidamide] | showed antiviral activity | 71.2 | showed antiviral activity | dose dependent antiviral activity | ~6 |  | showed antiviral activity | more than one log; also recorded: inhibit the replication |  |  |  | 
Cc1cc(NCCCN(C)C)c2ccc3c(ccc4c(NCCCN(C)C)cc(C)nc43)c2n1 [NSC 306365, N,N′-bis(3-dimethylaminopropyl)-3,9-dimethylquinolino[8,7-h]quinoline-1,7-diamine] | showed antiviral activity; also recorded: dose-dependent inhibition; also recorded: dose dependent antiviral activity | 99 | showed antiviral activity; also recorded: dose dependent inhibition | dose dependent antiviral activity |  |  | showed antiviral activity | half log; also recorded: inhibit the replication | one log; also recorded: inhibit the replication | submicromolar | increase in the mean time to death; also recorded: prolongs the mean time to death | 99
